The supplement of paper PMC4862054

System: DU-4475
Assay: normalised response (% of control), CellTox Green; higher = less cell death (100 = DMSO, 0 = benzethonium chloride kill control)
Details: incubation time: 72 h
How it was run: (§1)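 CellTox Green fluorescence (485/520 nm) and, after 10 min at room temperature, CellTiter-Glo luminescence were read from breast cancer cell lines incubated 72 h in 384-well plates. Cells were seeded as 20 µl suspension onto compound at 5 concentrations in 10-fold steps over a 10,000-fold range chosen per compound. Each plate was normalised to 0.1 % DMSO (100) and a positive kill control (0). Values are normalised signals, one per concentration.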

Compound | normalised response [%]
CNCc1ccc(-c2[nH]c3cc(F)cc4c3c2CCNC4=O)cc1 [Rucaparib] (1000 nM) | 95.3
C#Cc1cccc(Nc2ncnc3cc(OCCOC)c(OCCOC)cc23)c1 [Erlotinib] (1000 nM) | 103
Cn1c(CCCC(=O)O)nc2cc(N(CCCl)CCCl)ccc21 [Bendamustine] (10000 nM) | 103
N.N.[Cl][Pt][Cl] [Cisplatin] (1000 nM) | 97.5
C[C@]12CC[C@@H]3c4ccc(O)cc4C[C@@H](CCCCCCCCC[S+]([O-])CCCC(F)(F)C(F)(F)F)[C@H]3[C@@H]1CC[C@@H]2O (stereo partly specified) [Fulvestrant] (1000 nM) | 99.7
CN(C)/N=N/c1[nH]cnc1C(N)=O [Dacarbazine] (1000 nM) | 101

System: HCC1599
Assay: as above
Details: incubation time: 72 h
How it was run: as §1

Compound | normalised response [%]
CNCc1ccc(-c2[nH]c3cc(F)cc4c3c2CCNC4=O)cc1 [Rucaparib] (1000 nM) | 96.6
C#Cc1cccc(Nc2ncnc3cc(OCCOC)c(OCCOC)cc23)c1 [Erlotinib] (1000 nM) | 103
Cn1c(CCCC(=O)O)nc2cc(N(CCCl)CCCl)ccc21 [Bendamustine] (10000 nM) | 111
N.N.[Cl][Pt][Cl] [Cisplatin] (1000 nM) | 92
C[C@]12CC[C@@H]3c4ccc(O)cc4C[C@@H](CCCCCCCCC[S+]([O-])CCCC(F)(F)C(F)(F)F)[C@H]3[C@@H]1CC[C@@H]2O (stereo partly specified) [Fulvestrant] (1000 nM) | 98
CN(C)/N=N/c1[nH]cnc1C(N)=O [Dacarbazine] (1000 nM) | 101

System: MDA-MB-453
Assay: as above
Details: incubation time: 72 h
How it was run: as §1

Compound | normalised response [%]
CNCc1ccc(-c2[nH]c3cc(F)cc4c3c2CCNC4=O)cc1 [Rucaparib] (1000 nM) | 103
C#Cc1cccc(Nc2ncnc3cc(OCCOC)c(OCCOC)cc23)c1 [Erlotinib] (1000 nM) | 108
Cn1c(CCCC(=O)O)nc2cc(N(CCCl)CCCl)ccc21 [Bendamustine] (10000 nM) | 101
N.N.[Cl][Pt][Cl] [Cisplatin] (1000 nM) | 95.4
C[C@]12CC[C@@H]3c4ccc(O)cc4C[C@@H](CCCCCCCCC[S+]([O-])CCCC(F)(F)C(F)(F)F)[C@H]3[C@@H]1CC[C@@H]2O (stereo partly specified) [Fulvestrant] (1000 nM) | 97.9
CN(C)/N=N/c1[nH]cnc1C(N)=O [Dacarbazine] (1000 nM) | 103

System: CAL-85-1
Assay: as above
Details: incubation time: 72 h
How it was run: as §1

Compound | normalised response [%]
CNCc1ccc(-c2[nH]c3cc(F)cc4c3c2CCNC4=O)cc1 [Rucaparib] (1000 nM) | 71.2
C#Cc1cccc(Nc2ncnc3cc(OCCOC)c(OCCOC)cc23)c1 [Erlotinib] (1000 nM) | 70.4
Cn1c(CCCC(=O)O)nc2cc(N(CCCl)CCCl)ccc21 [Bendamustine] (10000 nM) | 84.3
N.N.[Cl][Pt][Cl] [Cisplatin] (1000 nM) | 97.9
C[C@]12CC[C@@H]3c4ccc(O)cc4C[C@@H](CCCCCCCCC[S+]([O-])CCCC(F)(F)C(F)(F)F)[C@H]3[C@@H]1CC[C@@H]2O (stereo partly specified) [Fulvestrant] (1000 nM) | 74.9
CN(C)/N=N/c1[nH]cnc1C(N)=O [Dacarbazine] (1000 nM) | 103

System: CAL-148
Assay: as above
Details: incubation time: 72 h
How it was run: as §1

Compound | normalised response [%]
CNCc1ccc(-c2[nH]c3cc(F)cc4c3c2CCNC4=O)cc1 [Rucaparib] (1000 nM) | 100
C#Cc1cccc(Nc2ncnc3cc(OCCOC)c(OCCOC)cc23)c1 [Erlotinib] (1000 nM) | 69.6
Cn1c(CCCC(=O)O)nc2cc(N(CCCl)CCCl)ccc21 [Bendamustine] (10000 nM) | 92.6
N.N.[Cl][Pt][Cl] [Cisplatin] (1000 nM) | 109
C[C@]12CC[C@@H]3c4ccc(O)cc4C[C@@H](CCCCCCCCC[S+]([O-])CCCC(F)(F)C(F)(F)F)[C@H]3[C@@H]1CC[C@@H]2O (stereo partly specified) [Fulvestrant] (1000 nM) | 100
CN(C)/N=N/c1[nH]cnc1C(N)=O [Dacarbazine] (1000 nM) | 101

System: MFM-223
Assay: as above
Details: incubation time: 72 h
How it was run: as §1

Compound | normalised response [%]
CNCc1ccc(-c2[nH]c3cc(F)cc4c3c2CCNC4=O)cc1 [Rucaparib] (1000 nM) | 84.5
C#Cc1cccc(Nc2ncnc3cc(OCCOC)c(OCCOC)cc23)c1 [Erlotinib] (1000 nM) | 86.7
Cn1c(CCCC(=O)O)nc2cc(N(CCCl)CCCl)ccc21 [Bendamustine] (10000 nM) | 96.5
N.N.[Cl][Pt][Cl] [Cisplatin] (1000 nM) | 93.2
C[C@]12CC[C@@H]3c4ccc(O)cc4C[C@@H](CCCCCCCCC[S+]([O-])CCCC(F)(F)C(F)(F)F)[C@H]3[C@@H]1CC[C@@H]2O (stereo partly specified) [Fulvestrant] (1000 nM) | 97.8

System: MDA-MB-231
Assay: as above
Details: incubation time: 72 h
How it was run: as §1

Compound | normalised response [%]
CNCc1ccc(-c2[nH]c3cc(F)cc4c3c2CCNC4=O)cc1 [Rucaparib] (1000 nM) | 100
C#Cc1cccc(Nc2ncnc3cc(OCCOC)c(OCCOC)cc23)c1 [Erlotinib] (1000 nM) | 101
N.N.[Cl][Pt][Cl] [Cisplatin] (1000 nM) | 94.5
C[C@]12CC[C@@H]3c4ccc(O)cc4C[C@@H](CCCCCCCCC[S+]([O-])CCCC(F)(F)C(F)(F)F)[C@H]3[C@@H]1CC[C@@H]2O (stereo partly specified) [Fulvestrant] (1000 nM) | 115
CN(C)/N=N/c1[nH]cnc1C(N)=O [Dacarbazine] (1000 nM) | 116

System: BT-474
Assay: as above
Details: incubation time: 72 h
How it was run: as §1

Compound | normalised response [%]
CNCc1ccc(-c2[nH]c3cc(F)cc4c3c2CCNC4=O)cc1 [Rucaparib] (1000 nM) | 95.8
C#Cc1cccc(Nc2ncnc3cc(OCCOC)c(OCCOC)cc23)c1 [Erlotinib] (1000 nM) | 98.3
Cn1c(CCCC(=O)O)nc2cc(N(CCCl)CCCl)ccc21 [Bendamustine] (10000 nM) | 101
N.N.[Cl][Pt][Cl] [Cisplatin] (1000 nM) | 103
C[C@]12CC[C@@H]3c4ccc(O)cc4C[C@@H](CCCCCCCCC[S+]([O-])CCCC(F)(F)C(F)(F)F)[C@H]3[C@@H]1CC[C@@H]2O (stereo partly specified) [Fulvestrant] (1000 nM) | 102
CN(C)/N=N/c1[nH]cnc1C(N)=O [Dacarbazine] (1000 nM) | 102

System: HCC1937
Assay: as above
Details: incubation time: 72 h
How it was run: as §1

Compound | normalised response [%]
CNCc1ccc(-c2[nH]c3cc(F)cc4c3c2CCNC4=O)cc1 [Rucaparib] (1000 nM) | 76
C#Cc1cccc(Nc2ncnc3cc(OCCOC)c(OCCOC)cc23)c1 [Erlotinib] (1000 nM) | 121
Cn1c(CCCC(=O)O)nc2cc(N(CCCl)CCCl)ccc21 [Bendamustine] (10000 nM) | 90.7
N.N.[Cl][Pt][Cl] [Cisplatin] (1000 nM) | 92.5
C[C@]12CC[C@@H]3c4ccc(O)cc4C[C@@H](CCCCCCCCC[S+]([O-])CCCC(F)(F)C(F)(F)F)[C@H]3[C@@H]1CC[C@@H]2O (stereo partly specified) [Fulvestrant] (1000 nM) | 98.5
CN(C)/N=N/c1[nH]cnc1C(N)=O [Dacarbazine] (1000 nM) | 116

System: HCC1143
Assay: as above
Details: incubation time: 72 h
How it was run: as §1

Compound | normalised response [%]
CNCc1ccc(-c2[nH]c3cc(F)cc4c3c2CCNC4=O)cc1 [Rucaparib] (1000 nM) | 104
C#Cc1cccc(Nc2ncnc3cc(OCCOC)c(OCCOC)cc23)c1 [Erlotinib] (1000 nM) | 112
Cn1c(CCCC(=O)O)nc2cc(N(CCCl)CCCl)ccc21 [Bendamustine] (10000 nM) | 129
N.N.[Cl][Pt][Cl] [Cisplatin] (1000 nM) | 108
C[C@]12CC[C@@H]3c4ccc(O)cc4C[C@@H](CCCCCCCCC[S+]([O-])CCCC(F)(F)C(F)(F)F)[C@H]3[C@@H]1CC[C@@H]2O (stereo partly specified) [Fulvestrant] (1000 nM) | 113
CN(C)/N=N/c1[nH]cnc1C(N)=O [Dacarbazine] (1000 nM) | 86.7

System: MDA-MB-436
Assay: as above
Details: incubation time: 72 h
How it was run: as §1

Compound | normalised response [%]
CNCc1ccc(-c2[nH]c3cc(F)cc4c3c2CCNC4=O)cc1 [Rucaparib] (1000 nM) | 60.3
C#Cc1cccc(Nc2ncnc3cc(OCCOC)c(OCCOC)cc23)c1 [Erlotinib] (1000 nM) | 101
Cn1c(CCCC(=O)O)nc2cc(N(CCCl)CCCl)ccc21 [Bendamustine] (10000 nM) | 114
N.N.[Cl][Pt][Cl] [Cisplatin] (1000 nM) | 98.4
C[C@]12CC[C@@H]3c4ccc(O)cc4C[C@@H](CCCCCCCCC[S+]([O-])CCCC(F)(F)C(F)(F)F)[C@H]3[C@@H]1CC[C@@H]2O (stereo partly specified) [Fulvestrant] (1000 nM) | 93
CN(C)/N=N/c1[nH]cnc1C(N)=O [Dacarbazine] (1000 nM) | 77

System: CAL-120
Assay: as above
Details: incubation time: 72 h
How it was run: as §1

Compound | normalised response [%]
CNCc1ccc(-c2[nH]c3cc(F)cc4c3c2CCNC4=O)cc1 [Rucaparib] (1000 nM) | 97.2
C#Cc1cccc(Nc2ncnc3cc(OCCOC)c(OCCOC)cc23)c1 [Erlotinib] (1000 nM) | 103
Cn1c(CCCC(=O)O)nc2cc(N(CCCl)CCCl)ccc21 [Bendamustine] (10000 nM) | 99.4
N.N.[Cl][Pt][Cl] [Cisplatin] (1000 nM) | 106
C[C@]12CC[C@@H]3c4ccc(O)cc4C[C@@H](CCCCCCCCC[S+]([O-])CCCC(F)(F)C(F)(F)F)[C@H]3[C@@H]1CC[C@@H]2O (stereo partly specified) [Fulvestrant] (1000 nM) | 97.9
CN(C)/N=N/c1[nH]cnc1C(N)=O [Dacarbazine] (1000 nM) | 100

System: HDQ-P1
Assay: as above
Details: incubation time: 72 h
How it was run: as §1

Compound | normalised response [%]
CNCc1ccc(-c2[nH]c3cc(F)cc4c3c2CCNC4=O)cc1 [Rucaparib] (1000 nM) | 71.8
C#Cc1cccc(Nc2ncnc3cc(OCCOC)c(OCCOC)cc23)c1 [Erlotinib] (1000 nM) | 100
N.N.[Cl][Pt][Cl] [Cisplatin] (1000 nM) | 109
C[C@]12CC[C@@H]3c4ccc(O)cc4C[C@@H](CCCCCCCCC[S+]([O-])CCCC(F)(F)C(F)(F)F)[C@H]3[C@@H]1CC[C@@H]2O (stereo partly specified) [Fulvestrant] (1000 nM) | 111
CN(C)/N=N/c1[nH]cnc1C(N)=O [Dacarbazine] (1000 nM) | 88.7

System: CAL-51
Assay: as above
Details: incubation time: 72 h
How it was run: as §1

Compound | normalised response [%]
CNCc1ccc(-c2[nH]c3cc(F)cc4c3c2CCNC4=O)cc1 [Rucaparib] (1000 nM) | 93.3
C#Cc1cccc(Nc2ncnc3cc(OCCOC)c(OCCOC)cc23)c1 [Erlotinib] (1000 nM) | 78.1
Cn1c(CCCC(=O)O)nc2cc(N(CCCl)CCCl)ccc21 [Bendamustine] (10000 nM) | 115
N.N.[Cl][Pt][Cl] [Cisplatin] (1000 nM) | 100
C[C@]12CC[C@@H]3c4ccc(O)cc4C[C@@H](CCCCCCCCC[S+]([O-])CCCC(F)(F)C(F)(F)F)[C@H]3[C@@H]1CC[C@@H]2O (stereo partly specified) [Fulvestrant] (1000 nM) | 117
CN(C)/N=N/c1[nH]cnc1C(N)=O [Dacarbazine] (1000 nM) | 105

System: DU-4475
Assay: normalised viability (% of control), CellTiter-Blue; higher = more viable cells (about 100 = DMSO control)
Details: 0.3 nM; incubation time: 72 h
How it was run: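 Vehicle (100) and a positive kill control (0) anchored the normalisation of each plate, and Z'-factor was used for quality control. Breast cancer cell lines in 20 µl suspension were incubated 72 h over compound in 5 µl medium in 384-well plates, followed by CellTiter-Blue at 560/590 nm. The value is normalised viability at a single listed concentration of the series.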

Compound | normalised viability [%]
CC(=O)Nc1ccc(C(=O)Nc2ccccc2N)cc1 [CI-994] | 86
Cc1ccc(C(=O)Nc2ccc(CN3CCN(C)CC3)c(C(F)(F)F)c2)cc1C#Cc1cnc2cccnn12 [Ponatinib] | 91.6

Same assay, conditions: 3 nM; incubation time: 72 h

Compound | normalised viability [%]
Oc1nc(-c2ccc(C(F)(F)F)cc2)nc2c1CSCC2 [XAV-939] | 117
CC(=O)Nc1ccc(C(=O)Nc2ccccc2N)cc1 [CI-994] | 81
N.N.[Cl][Pt][Cl] [Cisplatin] | 105
Cc1ccc(C(=O)Nc2ccc(CN3CCN(C)CC3)c(C(F)(F)F)c2)cc1C#Cc1cnc2cccnn12 [Ponatinib] | 91.7
CN[C@@H]1C[C@H]2O[C@@](C)([C@@H]1OC)n1c3ccccc3c3c4c(c5c6ccccc6n2c5c31)C(=O)N[C@H]4O [UCN-01] | 109
C[C@@H](Oc1cc(-c2cnn(C3CCNCC3)c2)cnc1N)c1c(Cl)ccc(F)c1Cl [Crizotinib] | 94.9
CC1(C)NC(=O)N(c2ccc([N+](=O)[O-])c(C(F)(F)F)c2)C1=O [Nilutamide] | 88
CNCc1ccc(-c2[nH]c3cc(F)cc4c3c2CCNC4=O)cc1 [Rucaparib] | 84
